The results in this text go back to patent publication US20220347299A1, “FLUORESCENT SYSTEMS FOR BIOLOGICAL IMAGING AND USES THEREOF” (LIGHTOX LIMITED, priority 2019, published 2022).

What all share (format): cell-based
One data set deals with HaCaT keratinocytes. Briefly: Co-staining with organelle markers, co-localisation (PCC). The conditions noted are these: 1 μM compound, 30 minutes, BODIPY ER-Tracker Red. The procedure: To study the localisation of compounds in biological cells, co-staining of compounds of formula I with specific organelle markers (fluorescent dyes and antibodies) within biological cells was conducted. The following compounds were studied: compounds 6, 7, 12, 13, 14 and 15. HaCaT keratinocyte cell lines were used for the following experimental procedures. The cells were incubated in cell culture media (94% Dulbecco's Modified Eagle Medium (DMEM), 5% Foetal Bovine Serum (FBS) and 1% Penicillin Streptomycin solution (Pen-Strep). The cells were plated in 8-well plates, at a concentration of 25,000 cells per ml. 200 μl of cell suspension was added to each well, and the cells were incubated for 2 days before staining and imaging was carried out. In order to visualise the mitochondria, cells were probed with the mitochondrial dye MitoTracker® Deep Red. Cells to be stained were incubated with 200 μl MitoTracker® Deep Red solution (200 nM MitoTracker® and 1 μM Formula I compound in cell culture media) per well (N=3) for 30 minutes. Nile Red was used to identify lipids within the cells. 200 μl Nile Red Lipophilic dye (10 μg/ml Nile Red and 1 μM Formula I compound in cell culture media) was added to each well (N=3) and incubated for 30 minutes. For the detection of lysosomes within the cells, LysoTracker® Red DND-99 dye was used. 200 μl LysoTracker® Red DND-99 (50 nM LysoTracker® and 1 μM Formula I compound solution in cell culture media) was added to each well (N=3) and incubated for 30 minutes. For visualisation of the endoplasmic reticulum (ER), cells were stained with BODIPY® ER-Tracker® Red. 200 μl BODIPY ER-Tracker® Red (1 μM BODIPY® and 1 μM Formula I compound solution in cell culture media) was added to each well (N=3) and incubated for 30 minutes. Following incubation, the cell culture media containing dye was removed, and cells were washed twice with 200 μl phosphate buffered saline (PBS). After washing, 200 μl PBS was added into each well for imaging. For visualisation of the nuclear lamina, cells were probed with an anti-lamin A/C antibody. The cells were plated on 22×22 mm cover slips (10,000 cells/ml) and incubated for 2 days before staining. The cells were washed with PBS to remove excess media before staining. The cells were fixed with 4% paraformaldehyde (PFA) for 10 minutes at room temperature, before being washed twice in PBS for 5 minutes. Following washing, the cells were permeabilised in 0.4% Triton X-100 in PBS for 10 minutes. The cells were subsequently washed three times in PBS for 5 minutes, before being incubated in blocking buffer (1% BSA, 0.1% fish gelatine and 0.1% Triton X-100 in PBS) for 15 minutes at room temperature. The cells were incubated in primary antibody (mouse anti-lamin A/C IgG in blocking buffer) for 1 hour at room temperature. The cells were then washed twice in blocking buffer and incubated in secondary antibody (anti-mouse Alexa-594 IgG in blocking buffer) for 30 minutes at room temperature. Cells were washed twice in PBS for 10 minutes at room temperature. For cell staining with compounds of formula I, 5 μM of the compound of formula I in PBS was added to the cells for 30 minutes at room temperature. Cells were then washed five times for 5 minutes in PBS. Following washing, the cells were mounted onto non-charged microscopy slides using 6 μl Mowiol® per cover slip as mounting media. A Zeiss 880 confocal microscope was used for all the imaging work. [table] Image) Coloc2 software was used to calculate co-localization statistics between the compounds of formula I and the organelle marker images. The background was subtracted from each image and a region of interest (ROI) was used to target the analysis. The point spread function (PSF) of each image was calculated as 2.0 and Coastes' iterations was set to 100. The statistic quantified was the Pearson's Correlation Coefficient (PCC). PCC gives a number ranging from +1 to −1:1=perfect co-localisation; 0=no relationship; and, −1=perfect anti-co-localisation. […]

For a further data set, the system named is Mycobacterium smegmatis. In words: Overnight growth curve (OD 600 nm) cytotoxicity assay, M. smegmatis. Here is the method: A sample of M. smegmatis was taken from a plate culture and inoculated into Middlebrook 7H9 broth containing an added Middlebrook ADC growth supplement to culture overnight at 37° C. for approximately 16 hours.
Samples were incubated in darkness at room temperature for approximately 2 hrs. A black clear bottom Costar™-96 well plate was then filled, with 200 μl of sample in each well Cells were irradiated for 5 minutes at approximately 15 mW/cm^2. The cytotoxicity of the compounds without irradiation was also assessed.
The 96 well plate was put into the plate reader and set up to run a growth curve protocol using the following parameters: • Incubation temperature: 37° C. • OD read wavelength 600 nm • 250 cycles, readings every 5 rains • Shaking for 5 s pre-reading
This was left to run overnight to obtain kinetic growth curves based on optical density readings.

For another data set, the system named is black-grass cells. In words: Cytotoxicity assay (FDA/PI) in black-grass cell suspension culture. The procedure:
5 mL of black-grass cell suspension culture was treated with 0.1, 1, 5, and 10 μM of compound numbers 7, 14, 12 and 15 for 1 hour at room temperature. Cells treated with 0.1% DMSO were used as a control. Cells were irradiated (˜365 nm) for 5 minutes before being incubated at 25° C., 150 rpm for 24 hours. In addition, the cytotoxicity of the compounds without irradiation was also assessed. Cell viability of five biological replicates for each concentration were determined via fluorescence assay (FDA/PI) assay. Percentage of cell viability was calculated using following formulation:
% viability={live cells (FDA)/(live cells+dead cells)}×100
The statistical analysis of percentage of cell viability was performed through one-way analysis of variance (ANOVA) followed by Tukey HSD posthoc test using SPSS 23 (IBM, Chicago, Ill., USA).

Regarding `COC(=O)/C=C/c1ccc(C#Cc2ccc(N(C)CCN)cc2)cc1` [Compound 12, methyl (2E)-3-[4-(2-{4-[(2-aminoethyl)(methyl)amino]phenyl}ethynyl)phenyl]prop-2-enoate], the “average PCC Value with BODIPY ER-Tracker” value in the data set with HaCaT keratinocytes came to 0.34. Further, the “growth of M. smegmatis, radiated samples” value in the data set with Mycobacterium smegmatis (100 μM, 405 nm, 5 min, approximately 15 mW/cm^2) is “begin to indicate some cytotoxicity”. Further, the “growth of M. smegmatis, no photoactivation” value with Mycobacterium smegmatis (1-100 μM, not irradiated) was “no significant difference between the treated and untreated controls”. The black-grass cell viability entry in the data set on black-grass cells (5 μM and 10 μM, after ~365 nm irradiation) is listed as “significantly reduced”. The “dependence of cytotoxic effect on irradiation” value with black-grass cells (black-grass cells, ~365 nm, 5 minutes) is “only observed after irradiation”.
